Measured values reported in patent US8575091B1, “Amylin analogues and pharmaceutical compositions thereof” (Novo Nordisk A/S, priority 2012, dated 2013).
Numbered stars: 1 amine (or outer) side, 2 acyl side, 3 side chain; on linkers, the order of the positions; unused ones are H or OH. Bridge positions count the residues as written; N and C are the ends. Side chains are listed from the residue outwards. Peptide text beside a SMILES is read from it. * marks the point of attachment. C20 diacid = O=C(O)CCCCCCCCCCCCCCCCCCC(=O)*; γGlu = O=C(O)[C@H](CCC(=O)[*:2])N[*:1]

Columns and labels:
human amylin receptor = target: T1, human amylin receptor (Homo sapiens, UniProt O60896+P30988); experiment: Assay (V) binding to the human amylin receptor (SPA, 125I-rat amylin)
T1 construct: expressed in transfected cells
T1 sequence (P30988 25-474): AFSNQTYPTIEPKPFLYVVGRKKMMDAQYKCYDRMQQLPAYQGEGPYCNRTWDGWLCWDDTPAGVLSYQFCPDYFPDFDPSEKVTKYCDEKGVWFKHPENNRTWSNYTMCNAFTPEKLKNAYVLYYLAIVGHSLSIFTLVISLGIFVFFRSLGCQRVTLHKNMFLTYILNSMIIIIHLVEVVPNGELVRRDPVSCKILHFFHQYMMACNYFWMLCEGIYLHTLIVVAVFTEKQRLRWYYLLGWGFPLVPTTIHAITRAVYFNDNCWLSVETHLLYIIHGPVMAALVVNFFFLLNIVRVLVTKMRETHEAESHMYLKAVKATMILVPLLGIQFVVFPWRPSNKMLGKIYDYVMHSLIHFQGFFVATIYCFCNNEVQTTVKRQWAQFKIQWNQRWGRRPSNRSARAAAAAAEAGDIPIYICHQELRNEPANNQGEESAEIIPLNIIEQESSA
T1 sequence (O60896 24-148 partner): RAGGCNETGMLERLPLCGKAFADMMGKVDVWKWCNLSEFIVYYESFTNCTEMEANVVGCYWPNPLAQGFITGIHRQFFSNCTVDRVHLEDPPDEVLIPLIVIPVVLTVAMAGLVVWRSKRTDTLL
Procedure: The binding assay was performed using scintillation proximity assay (SPA) beads (RPNQ0001) from PerkinElmer and cell membranes from the Amylin 3(a)/CRE-luc cells (as described in Assay (II)) were used. Membranes were prepared in the following way; the cells were rinsed with PBS and incubated with Versene for approximately 5 min before harvesting. The cells were flushed with PBS and the cell-suspension was centrifuged for 5 min at 1000 rpm. […] The resulting pellet was resuspended in buffer 2 and protein concentration was measured (BCA protein Assay, Pierce). The homogenate was kept cold during the whole procedure. The membranes were kept at −80° C. until use. The assay was performed in a 384 well Optiplate (PerkinElmer) in a total volume of 40 ul. Membranes were mixed with SPA beads. Final concentration of membranes 35 ng/μL final and SPA beads was 0.05 mg/well. Test-compounds were dissolved in DMSO and further diluted in assay buffer (50 mM Hepes, pH 7.4, 1 mM CaCl2, 5 mM MgCl2, 0.1% OA and 0.02% Tween20). […] Samples were analyzed on TopCounter™ (Packard). The IC50 was calculated using (one site binding competition analysis) GraphPad Prism5 as a measure of receptor affinity.

[1] = target: T2, human amylin receptor (amylin 3(a) receptor: human calcitonin receptor + RAMP-3) (Homo sapiens, UniProt O60896+P30988); experiment: Assay (II)a functional assay, human amylin receptor (CRE luciferase, BHK cells); format: cell-based
T2 construct: expressed in transfected cells
T2 sequence (P30988 25-474): T1 sequence (P30988 25-474)
T2 sequence (O60896 24-148 partner): T1 sequence (O60896 24-148 partner)

[2] = Table 6, human functional selectivity (hCTR EC50 / hAmylin-R EC50)
[3] = Table 6a, human functional selectivity (hCTR EC50 / hAmylin-R EC50), at least 5
[4] = Table 6i, hCTR funct. EC50 / hAmylin-R funct. EC50
[5] = Table 6j, hCTR funct. EC50 / hAmylin-R funct. EC50
[6] = Table 6k, hCTR funct. EC50 / hAmylin-R funct. EC50

| Structure (SMILES) | IC50 (human amylin receptor; human amylin receptor membranes, SPA, read-out: hAmylin-R bind IC50) [nM] | Ratio hCT/hAmylin binding (human amylin receptor; Table 7b, human calcitonin receptor binding IC50 divided by human amylin receptor binding IC50) | Ratio hCT/hAmylin binding (human amylin receptor; Table 7c, human calcitonin receptor binding IC50 divided by human amylin receptor binding IC50) | Ratio hCT/hAmylin binding (human amylin receptor; human binding ratio, included for comparison) | Ratio hCT/hAmylin funct. [1, 2] | Ratio hCT/hAmylin funct. [1, 3] | Ratio hCT/hAmylin funct. [1, 4] | Ratio hCT/hAmylin funct. [1, 5] | Ratio hCT/hAmylin funct. [1, 6] |
| --- | --- | --- | --- | --- | --- | --- | --- | --- | --- |
| CC[C@H](C)[C@H](NC(=O)[C@H](C)NC(=O)CNC(=O)[C@H](Cc1ccccc1)NC(=O)[C@H](CC(N)=O)NC(=O)[C@@H]1CCCN1C(=O)[C@H](CO)NC(=O)[C@H](CO)NC(=O)[C@H](Cc1c[nH]cn1)NC(=O)[C@H](CCCNC(=N)N)NC(=O)[C@H](CC(C)C)NC(=O)[C@H](Cc1ccccc1)NC(=O)[C@H](CC(N)=O)NC(=O)[C@H](C)NC(=O)[C@H](CC(C)C)NC(=O)[C@H](CCCNC(=N)N)NC(=O)[C@H](CCC(N)=O)NC(=O)[C@@H](NC(=O)[C@H](C)NC(=O)[C@@H]1CSSC[C@H](NC(=O)[C@@H](N)CCCCNC(=O)COCCOCCNC(=O)CC[C@H](NC(=O)CCCCCCCCCCCCCCCCCCC(=O)O)C(=O)O)C(=O)N[C@@H](CC(N)=O)C(=O)N[C@@H]([C@@H](C)O)C(=O)N[C@@H](C)C(=O)N[C@@H]([C@@H](C)O)C(=O)N1)[C@@H](C)O)C(=O)N1CCC[C@H]1C(=O)N[C@@H](CO)C(=O)N[C@@H](CO)C(=O)N[C@H](C(=O)N[C@@H](CC(N)=O)C(=O)N[C@H](C(=O)NCC(=O)N[C@@H](CO)C(=O)N[C@@H](CCCNC(=N)N)C(=O)N[C@H](C(=O)N[C@@H](Cc1ccc(O)cc1)C(N)=O)[C@@H](C)O)C(C)C)[C@@H](C)O [Example 38] | 0.249 |  |  |  |  |  |  |  |  |
| CC[C@H](C)[C@H](NC(=O)[C@H](C)NC(=O)CNC(=O)[C@H](Cc1ccccc1)NC(=O)[C@H](CC(N)=O)NC(=O)[C@@H]1CCCN1C(=O)[C@H](CO)NC(=O)[C@H](CO)NC(=O)[C@H](Cc1c[nH]cn1)NC(=O)[C@H](CCCNC(=N)N)NC(=O)[C@H](CC(C)C)NC(=O)[C@H](Cc1ccccc1)NC(=O)[C@H](CC(N)=O)NC(=O)[C@H](C)NC(=O)[C@H](CC(C)C)NC(=O)[C@H](CCCNC(=N)N)NC(=O)[C@H](CCC(N)=O)NC(=O)[C@@H](NC(=O)[C@H](C)NC(=O)[C@@H]1CSSC[C@H](NC(=O)[C@H](CCCCN)NC(=O)CC[C@H](NC(=O)CCCCCCCCCCCCCCCCCCC(=O)O)C(=O)O)C(=O)N[C@@H](CC(N)=O)C(=O)N[C@@H]([C@@H](C)O)C(=O)N[C@@H](C)C(=O)N[C@@H]([C@@H](C)O)C(=O)N1)[C@@H](C)O)C(=O)N1CCC[C@H]1C(=O)N[C@@H](CO)C(=O)N[C@@H](CO)C(=O)N[C@H](C(=O)N[C@@H](CC(N)=O)C(=O)N[C@H](C(=O)NCC(=O)N[C@@H](CCCNC(=N)N)C(=O)N[C@@H](CC(N)=O)C(=O)N[C@H](C(=O)N[C@@H](Cc1ccc(O)cc1)C(N)=O)[C@@H](C)O)C(C)C)[C@@H](C)O [Example 39] ({C20 diacid-γGlu}-KCNTATCATQRLANFLRHSSPNFGAIPSSTNVGRNTY-NH2; disulfide 2-7) |  | 29.0 | 29.0 | 29.0 |  |  |  |  |  |
| CC[C@H](C)[C@H](NC(=O)[C@H](C)NC(=O)CNC(=O)[C@H](Cc1ccccc1)NC(=O)[C@H](CC(N)=O)NC(=O)[C@@H]1CCCN1C(=O)[C@H](CO)NC(=O)[C@H](CO)NC(=O)[C@H](Cc1c[nH]cn1)NC(=O)[C@H](CCCNC(=N)N)NC(=O)[C@H](CC(C)C)NC(=O)[C@H](Cc1ccccc1)NC(=O)[C@H](CCC(=O)O)NC(=O)[C@H](C)NC(=O)[C@H](CC(C)C)NC(=O)[C@H](CCCNC(=N)N)NC(=O)[C@H](CCC(N)=O)NC(=O)[C@@H](NC(=O)[C@H](C)NC(=O)[C@@H]1CSSC[C@H](NC(=O)[C@@H](N)CCCCNC(=O)CC[C@H](NC(=O)CCCCCCCCCCCCCCCCCCC(=O)O)C(=O)O)C(=O)N[C@@H](CC(N)=O)C(=O)N[C@@H]([C@@H](C)O)C(=O)N[C@@H](C)C(=O)N[C@@H]([C@@H](C)O)C(=O)N1)[C@@H](C)O)C(=O)N1CCC[C@H]1C(=O)N[C@@H](CO)C(=O)N[C@@H](CO)C(=O)N[C@H](C(=O)N[C@@H](CC(N)=O)C(=O)N[C@H](C(=O)NCC(=O)N[C@@H](Cc1c[nH]cn1)C(=O)N[C@@H](CCC(=O)O)C(=O)N[C@H](C(=O)N[C@@H](Cc1ccc(O)cc1)C(N)=O)[C@@H](C)O)C(C)C)[C@@H](C)O [Example 107] (H-K([γGlu-C20 diacid])CNTATCATQRLAEFLRHSSPNFGAIPSSTNVGHETY-NH2; disulfide 2-7 (inferred); N-terminus and C-terminus assumed) |  |  |  |  | 6.3 | 6.3 | 6.3 | 6.3 | 6.3 |
| CC[C@H](C)[C@H](NC(=O)[C@H](C)NC(=O)CNC(=O)[C@H](Cc1ccccc1)NC(=O)[C@H](CC(N)=O)NC(=O)[C@@H]1CCCN1C(=O)[C@H](CO)NC(=O)[C@H](CO)NC(=O)[C@H](Cc1c[nH]cn1)NC(=O)[C@H](CCCNC(=N)N)NC(=O)[C@H](CC(C)C)NC(=O)[C@H](Cc1ccccc1)NC(=O)[C@H](CCC(=O)O)NC(=O)[C@H](C)NC(=O)[C@H](CC(C)C)NC(=O)[C@H](CCCNC(=N)N)NC(=O)[C@H](CCC(N)=O)NC(=O)[C@@H](NC(=O)[C@H](C)NC(=O)[C@@H]1CSSC[C@H](NC(=O)[C@@H](N)CCCCNC(=O)CC[C@H](NC(=O)CCCCCCCCCCCCCCCCCCC(=O)O)C(=O)O)C(=O)N[C@@H](CC(N)=O)C(=O)N[C@@H]([C@@H](C)O)C(=O)N[C@@H](C)C(=O)N[C@@H]([C@@H](C)O)C(=O)N1)[C@@H](C)O)C(=O)N1CCC[C@H]1C(=O)N[C@@H](CO)C(=O)N[C@@H](CO)C(=O)N[C@H](C(=O)N[C@@H](CC(N)=O)C(=O)N[C@H](C(=O)NCC(=O)N[C@@H](CCCNC(=N)N)C(=O)N[C@@H](CCC(=O)O)C(=O)N[C@H](C(=O)N[C@@H](Cc1ccc(O)cc1)C(N)=O)[C@@H](C)O)C(C)C)[C@@H](C)O [Example 108] (H-K([γGlu-C20 diacid])CNTATCATQRLAEFLRHSSPNFGAIPSSTNVGRETY-NH2; disulfide 2-7 (inferred); N-terminus and C-terminus assumed) |  |  |  |  | 6.5 | 6.5 | 6.5 | 6.5 | 6.5 |
| CC[C@H](C)[C@H](NC(=O)[C@H](C)NC(=O)CNC(=O)[C@H](Cc1ccccc1)NC(=O)[C@H](CC(N)=O)NC(=O)[C@@H]1CCCN1C(=O)[C@H](CO)NC(=O)[C@H](CO)NC(=O)[C@H](Cc1c[nH]cn1)NC(=O)[C@H](CCCNC(=N)N)NC(=O)[C@H](CC(C)C)NC(=O)[C@H](Cc1ccccc1)NC(=O)[C@H](CO)NC(=O)[C@H](C)NC(=O)[C@H](CC(C)C)NC(=O)[C@H](CCCNC(=N)N)NC(=O)[C@H](CCC(N)=O)NC(=O)[C@@H](NC(=O)[C@H](C)NC(=O)[C@@H]1CSSC[C@H](NC(=O)[C@@H](N)CCCCNC(=O)CC[C@H](NC(=O)CC[C@H](NC(=O)CCCCCCCCCCCCCCCCCCC(=O)O)C(=O)O)C(=O)O)C(=O)N[C@@H](CC(N)=O)C(=O)N[C@@H]([C@@H](C)O)C(=O)N[C@@H](C)C(=O)N[C@@H]([C@@H](C)O)C(=O)N1)[C@@H](C)O)C(=O)N1CCC[C@H]1C(=O)N[C@@H](CO)C(=O)N[C@@H](CO)C(=O)N[C@H](C(=O)N[C@@H](CC(N)=O)C(=O)N[C@H](C(=O)NCC(=O)N1CCC[C@H]1C(=O)N[C@@H](CCC(=O)O)C(=O)N[C@H](C(=O)N[C@@H](Cc1ccc(O)cc1)C(N)=O)[C@@H](C)O)C(C)C)[C@@H](C)O [Example 120] (H-K([γGlu-γGlu-C20 diacid])CNTATCATQRLASFLRHSSPNFGAIPSSTNVGPETY-NH2; disulfide 2-7 (inferred); N-terminus and C-terminus assumed) |  |  |  |  | 8.1 | 8.1 |  | 8.1 | 8.1 |
